Assay results reported in ChEMBL document CHEMBL1155915, “Anticonvulsant activity of some xanthone derivatives” (Bioorg Med Chem, 2008).
Active and inactive are the calls of the source. The rule behind the calls is not given here.

Legend:
Rattus norvegicus [1] = test: Neurotoxicity in rat at 30 mg/kg, po after 0.25 hrs by rotarod test; format: toxicity, organism-based; design: dose 30 mg/kg, route oral; conditions: in vivo
Mus musculus [2] = test: Anticonvulsant activity against maximal electroshock-induced seizures in mouse at 300 mg/kg, ip after 0.5 hrs; format: functional, organism-based; design: dose 300 mg/kg
Mus musculus [3] = test: Anticonvulsant activity against scMet-induced seizures in ip dosed mouse; format: functional
Mus musculus [4] = test: Anticonvulsant activity against scMet-induced seizures in mouse at 300 mg/kg, ip after 0.5 hrs; format: functional, organism-based; design: dose 300 mg/kg
Mus musculus [5] = test: Neurotoxicity in mouse at 30 mg/kg, ip after 0.5 hrs by rotarod test; format: toxicity, organism-based; design: dose 30 mg/kg, route intraperitoneal; conditions: in vivo
Rattus norvegicus [6] = test: Anticonvulsant activity against maximal electroshock-induced seizures in rat at 30 mg/kg, po after 1 hr; format: functional, organism-based; design: dose 30 mg/kg
Mus musculus [7] = test: Anticonvulsant activity against maximal electroshock-induced seizures in ip dosed mouse; format: functional
Mus musculus [8] = species: Mus musculus; test: Protective index, ratio of TD50 for mouse by rotarod test to ED50 for mouse by MES test; format: functional
Mus musculus [9] = test: Neurotoxicity in mouse at 300 mg/kg, ip after 4 hrs by rotarod test; format: toxicity, organism-based; design: dose 300 mg/kg, route intraperitoneal; conditions: in vivo
Mus musculus [10] = test: Anticonvulsant activity against scMet-induced seizures in mouse at 300 mg/kg, ip after 4 hrs; format: functional, organism-based; design: dose 300 mg/kg
Rattus norvegicus [11] = test: Neurotoxicity in rat at 30 mg/kg, po after 0.5 hrs by rotarod test; format: toxicity, organism-based; design: dose 30 mg/kg, route oral; conditions: in vivo
Mus musculus [12] = test: Anticonvulsant activity against scMet-induced seizures in mouse at 100 mg/kg, ip after 4 hrs; format: functional, organism-based; design: dose 100 mg/kg
Rattus norvegicus [13] = test: Anticonvulsant activity against maximal electroshock-induced seizures in rat at 30 mg/kg, po after 2 hrs; format: functional, organism-based; design: dose 30 mg/kg
Mus musculus [14] = test: Anticonvulsant activity against maximal electroshock-induced seizures in mouse at 300 mg/kg, ip after 4 hrs; format: functional, organism-based; design: dose 300 mg/kg
Rattus norvegicus [15] = test: Neurotoxicity in rat at 30 mg/kg, po after 2 hrs by rotarod test; format: toxicity, organism-based; design: dose 30 mg/kg, route oral; conditions: in vivo
Mus musculus [16] = test: Anticonvulsant activity against maximal electroshock-induced seizures in mouse at 30 mg/kg, ip after 0.5 hrs; format: functional, organism-based; design: dose 30 mg/kg
Rattus norvegicus [17] = test: Neurotoxicity in rat at 30 mg/kg, po after 1 hr by rotarod test; format: toxicity, organism-based; design: dose 30 mg/kg, route oral; conditions: in vivo
Mus musculus [18] = test: Neurotoxicity in mouse at 100 mg/kg, ip after 4 hrs by rotarod test; format: toxicity, organism-based; design: dose 100 mg/kg, route intraperitoneal; conditions: in vivo
Mus musculus [19] = test: Neurotoxicity in mouse at 100 mg/kg, ip after 0.5 hrs by rotarod test; format: toxicity, organism-based; design: dose 100 mg/kg, route intraperitoneal; conditions: in vivo
[20] = Displacement of [3H]nitrendipine from voltage-dependent calcium channel in rat brain cortex by scintillation counting; format: tissue-based
Mus musculus [21] = test: Anticonvulsant activity against scMet-induced seizures in mouse at 30 mg/kg, ip after 0.5 hrs; format: functional, organism-based; design: dose 30 mg/kg
Mus musculus [22] = test: Anticonvulsant activity against maximal electroshock-induced seizures in mouse at 30 mg/kg, ip after 4 hrs; format: functional, organism-based; design: dose 30 mg/kg
[23] = Displacement of [3H]flunitrazepam from benzodiazepine receptor in rat brain cortex by scintillation counting; format: tissue-based
[24] = Neurotoxicity in ip dosed mouse by rotarod test; format: toxicity, organism-based; conditions: in vivo
Mus musculus [25] = test: Anticonvulsant activity against scMet-induced seizures in mouse at 30 mg/kg, ip after 4 hrs; format: functional, organism-based; design: dose 30 mg/kg
Mus musculus [26] = test: Neurotoxicity in mouse at 30 mg/kg, ip after 4 hrs by rotarod test; format: toxicity, organism-based; design: dose 30 mg/kg, route intraperitoneal; conditions: in vivo
Rattus norvegicus [27] = test: Anticonvulsant activity against maximal electroshock-induced seizures in rat at 30 mg/kg, po after 0.5 hrs; format: functional, organism-based; design: dose 30 mg/kg
Rattus norvegicus [28] = test: Neurotoxicity in rat at 30 mg/kg, po after 4 hrs by rotarod test; format: toxicity, organism-based; design: dose 30 mg/kg, route oral; conditions: in vivo
Mus musculus [29] = test: Neurotoxicity in mouse at 30 mg/kg, ip after 1 hr by rotarod test; format: toxicity, organism-based; design: dose 30 mg/kg, route intraperitoneal; conditions: in vivo
Rattus norvegicus [30] = test: Anticonvulsant activity against maximal electroshock-induced seizures in rat at 30 mg/kg, po after 4 hrs; format: functional, organism-based; design: dose 30 mg/kg
Mus musculus [31] = test: Anticonvulsant activity against scMet-induced seizures in mouse at 100 mg/kg, ip after 0.5 hrs; format: functional, organism-based; design: dose 100 mg/kg
Rattus norvegicus [32] = test: Anticonvulsant activity against maximal electroshock-induced seizures in rat at 30 mg/kg, po after 0.25 hrs; format: functional, organism-based; design: dose 30 mg/kg
Mus musculus [33] = test: Anticonvulsant activity against maximal electroshock-induced seizures in mouse at 100 mg/kg, ip after 4 hrs; format: functional, organism-based; design: dose 100 mg/kg
Mus musculus [34] = test: Anticonvulsant activity against maximal electroshock-induced seizures in mouse at 100 mg/kg, ip after 0.5 hrs; format: functional, organism-based; design: dose 100 mg/kg
Mus musculus [35] = test: Neurotoxicity in mouse at 100 mg/kg, ip after 1 hr by rotarod test; format: toxicity, organism-based; design: dose 100 mg/kg, route intraperitoneal; conditions: in vivo
Mus musculus [36] = test: Neurotoxicity in mouse at 300 mg/kg, ip after 0.5 hrs by rotarod test; format: toxicity, organism-based; design: dose 300 mg/kg, route intraperitoneal; conditions: in vivo
Mus musculus [37] = test: Anticonvulsant activity against maximal electroshock-induced seizures in mouse at 100 mg/kg, ip after 1 hr; format: functional, organism-based; design: dose 100 mg/kg
Mus musculus [38] = test: Neurotoxicity in mouse at 100 mg/kg, ip after 0.25 hrs by rotarod test; format: toxicity, organism-based; design: dose 100 mg/kg, route intraperitoneal; conditions: in vivo
Mus musculus [39] = test: Anticonvulsant activity against maximal electroshock-induced seizures in mouse at 10 mg/kg, ip after 4 hrs; format: functional, organism-based; design: dose 10 mg/kg
Mus musculus [40] = test: Neurotoxicity in mouse at 10 mg/kg, ip after 0.5 hrs by rotarod test; format: toxicity, organism-based; design: dose 10 mg/kg, route intraperitoneal; conditions: in vivo
Mus musculus [41] = test: Anticonvulsant activity against maximal electroshock-induced seizures in mouse at 10 mg/kg, ip after 0.5 hrs; format: functional, organism-based; design: dose 10 mg/kg
Mus musculus [42] = test: Anticonvulsant activity against scMet-induced seizures in mouse at 10 mg/kg, ip after 0.5 hrs; format: functional, organism-based; design: dose 10 mg/kg
Mus musculus [43] = test: Neurotoxicity in mouse at 3 mg/kg, ip after 0.5 hrs by rotarod test; format: toxicity, organism-based; design: dose 3 mg/kg, route intraperitoneal; conditions: in vivo
Mus musculus [44] = test: Neurotoxicity in mouse at 10 mg/kg, ip after 4 hrs by rotarod test; format: toxicity, organism-based; design: dose 10 mg/kg, route intraperitoneal; conditions: in vivo
Mus musculus [45] = test: Anticonvulsant activity against maximal electroshock-induced seizures in mouse at 3 mg/kg, ip after 0.5 hrs; format: functional, organism-based; design: dose 3 mg/kg
Mus musculus [46] = test: Anticonvulsant activity against scMet-induced seizures in mouse at 10 mg/kg, ip after 4 hrs; format: functional, organism-based; design: dose 10 mg/kg

SMILES | Neurotoxicity (Rattus norvegicus [1]) | Activity (Mus musculus [2]) | Activity (Mus musculus [4]) | Neurotoxicity (Mus musculus [5]) | Activity (Rattus norvegicus [6]) | Neurotoxicity (Mus musculus [9]) | Activity (Mus musculus [10]) | Neurotoxicity (Rattus norvegicus [11]) | Activity (Mus musculus [12]) | Activity (Rattus norvegicus [13]) | Activity (Mus musculus [14]) | Neurotoxicity (Rattus norvegicus [15]) | Activity (Mus musculus [16]) | Neurotoxicity (Rattus norvegicus [17]) | Neurotoxicity (Mus musculus [18]) | Activity (Mus musculus [21]) | Activity (Mus musculus [22]) | Activity (Mus musculus [25]) | Neurotoxicity (Mus musculus [26]) | Activity (Rattus norvegicus [27]) | further results
C[C@@H](CO)NCc1ccc2oc3cc(Cl)ccc3c(=O)c2c1 | Not Active | Active | inactive | Not Active | inactive | Not Active | inactive | Not Active | inactive | inactive | Active | Not Active | inactive | Not Active | Not Active | inactive | inactive | inactive | Not Active | inactive | ED50 (Mus musculus [3]): > 350 mg/kg; ED50 (Mus musculus [7]): 73 mg/kg; PI (Mus musculus [8]): <6.851; Neurotoxicity (Mus musculus [19]): Not Active; EC50 [20]: 7.6 µM; EC50 [23]: 30 µM; TD50 [24]: < 500 mg/kg; Neurotoxicity (Rattus norvegicus [28]): Not Active
Cl.O=c1c2ccc(Cl)cc2oc2ccc(CNCCCO)cc12 | Not Active | Active | inactive | Not Active | inactive | Neurotoxic | inactive | Not Active | inactive | inactive | inactive | Not Active | inactive | Not Active | Not Active | inactive | inactive | inactive | Not Active | inactive | Neurotoxicity (Mus musculus [29]): Not Active; Activity (Rattus norvegicus [30]): inactive; Activity (Mus musculus [31]): inactive; Activity (Rattus norvegicus [32]): inactive; Activity (Mus musculus [33]): inactive; Activity (Mus musculus [34]): inactive; Neurotoxicity (Mus musculus [35]): Not Active; Neurotoxicity (Mus musculus [36]): Neurotoxic; Neurotoxicity (Rattus norvegicus [28]): Not Active
C[C@@H](CCl)NCc1ccc2oc3cc(Cl)ccc3c(=O)c2c1.Cl |  | Active | inactive |  |  | Not Active | inactive |  | inactive |  | Active |  | inactive |  | Not Active | inactive | inactive | inactive | Not Active |  | Activity (Mus musculus [31]): inactive; Activity (Mus musculus [34]): inactive; Activity (Mus musculus [37]): inactive; Neurotoxicity (Mus musculus [38]): Not Active
CCN(CCO)Cc1ccc2oc3cc(Cl)ccc3c(=O)c2c1 | Not Active |  |  | Not Active | inactive |  |  | Not Active | inactive | inactive |  | Not Active | inactive | Not Active | Neurotoxic | inactive | inactive | inactive | Not Active | inactive | Activity (Rattus norvegicus [30]): inactive; Activity (Mus musculus [39]): inactive; Neurotoxicity (Mus musculus [40]): Not Active; Activity (Mus musculus [31]): inactive; Activity (Mus musculus [41]): Active; Activity (Mus musculus [42]): inactive; Activity (Mus musculus [34]): Active; Neurotoxicity (Mus musculus [43]): Not Active; Neurotoxicity (Mus musculus [36]): Neurotoxic; Neurotoxicity (Mus musculus [44]): Not Active; Activity (Mus musculus [45]): inactive; Activity (Mus musculus [46]): inactive; Neurotoxicity (Rattus norvegicus [28]): Not Active
